Molecules are shown by their SMILES.

The nature of test [1]: GSH arylation rate constants (NMR; UV-vis for fast warheads). It counts as physicochemical. Particulars: for rate constant (k) for the reaction with GSH: by NMR, KPi buffer, 5% DMSO-d6; for k change (vs ref): ratio to rate constant of 4q, acceleration (+) or deceleration (-); for k/kref / ΔΔG≠1exp: relative to 4q; for ΔΔG≠1exp: via -RTln(k/kref). The gist of the method:
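Second-order rate constants k for GSH arylation derived from pseudo-first-order k′ (warhead:GSH 1:10), by normalized NMR integration of the disappearing warhead signal over 6 h; TMSP internal standard. KPi buffer with 5% d6-DMSO, pH 7.0 and 6.5, 20 °C; UV–vis used for fast warheads. Mean of ≥2 independent runs.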

Another test concerns the target T1, p53-Y220C (Homo sapiens, UniProt P04637, M133L/N239Y/N268D/V203A/Y220C).
T1 construct: (residues 94-312); 6xHis/lipoyl domain/TEV protease cleavage site (N, cleaved yes); made in house; host or cells: E. coli C41
As to the kind of experiment: Differential scanning fluorimetry (DSF). The test is classed as binding. As to conditions: 100 μM compound; 8 µM p53-Y220C; read-out: Protein thermal stability ΔTm. An excerpt:
We also probed the general effect of 2-SPs on protein stability by using differential scanning fluorimetry (DSF). […] Mutants of the 25 kDa DNA-binding domain of the tumor suppressor p53 are notorious for their reduced thermal stability and denaturation/aggregation propensity.[37] The 56 kDa armadillo domain (ARD) of β-catenin mediates canonical Wnt signaling and plays a central role in embryogenesis and tissue homeostasis.[38] FGE (37 kDa) is the only known activator of human sulfatases, and its stability is susceptible to modification of its cysteines.[39] […]
described.7 Briefly, the N-terminal fusion protein (6xHis/lipoyl domain/TEV protease cleavage site) was overexpressed using E. coli C41 cells in 2xTY medium at 20°C for 16 h and purified using standard Ni-affinity chromatography protocols. […]
was further purified using a Heparin column. Finally, gel filtration chromatography was performed using a Superdex 75 16/60 preparative gel filtration column (GE Healthcare) in a 25 mM KPi (pH 7.2), 150 […]
mM NaCl, and 1 mM TCEP buffer. […]
gel electrophoresis and ESI-MS. […]

As to `O=S(=O)(c1ccccc1)c1ncccn1` [5d], the k in test [1] (Table S8, rate constants obtained at pH = 7) came to 0.035 M⁻¹ s⁻¹. The same compound yielded a rate constant (k) for the reaction with GSH in test [1] (pH 6.5) of 0.01 ± 0.005 M⁻¹ s⁻¹. Moreover, in test [1] (pH 7.0), the rate constant (k) for the reaction with GSH came out at 0.035 ± 0.015 M⁻¹ s⁻¹ and the “k change (vs ref)” value is “≈”. Moreover, in test [1], the k/kref is 1.4 and the “ΔΔG≠1exp” value was -0.198 kcal/mol. Besides, the ΔTm at 100 µM at p53-Y220C worked out at 0 °C.
`CC(C)(C)S(=O)(=O)c1ncccn1` [5a]: the “rate constant (k) for the reaction with GSH” value in test [1] (pH 6.5) is “Ca. 0.03 mM-1.s-1”. Besides, in test [1] (pH 7.0), the rate constant (k) for the reaction with GSH was 0.00018 ± 3e-05 M⁻¹ s⁻¹ and the “k change (vs ref)” value is on record as -139 fold. Further, in test [1], the k/kref came out at 0.0072 and the “ΔΔG≠1exp” value was found to be 2.87 kcal/mol. Further, the ΔTm at 100 µM at p53-Y220C stood at 0.2 °C.

For the origin of these results see article PMC10515483, “Structure–Reactivity Studies of 2-Sulfonylpyrimidines Allow Selective Protein Arylation” (Bioconjugate Chemistry, 2023).
